Patent US9815866B2, “Peptides that bind to epithelial cell adhesion molecule” (JAPANESE FOUNDATION FOR CANCER RESEARCH, priority 2012, dated 2017)
Bridge positions count the residues as written; N and C are the ends. Peptide text beside a SMILES is read from it.

Key:
[1] = biological target: T1, HT-29-derived exosomes (Homo sapiens, UniProt P16422); assay: ELISA with immobilized biotinylated peptide and HT-29-derived exosomes; type: binding; conditions: increasing HT-29-derived exosomes
T1 construct: endogenous in cells; host or cells: exosomes from HT-29 cells
T1 sequence (P16422 24-314): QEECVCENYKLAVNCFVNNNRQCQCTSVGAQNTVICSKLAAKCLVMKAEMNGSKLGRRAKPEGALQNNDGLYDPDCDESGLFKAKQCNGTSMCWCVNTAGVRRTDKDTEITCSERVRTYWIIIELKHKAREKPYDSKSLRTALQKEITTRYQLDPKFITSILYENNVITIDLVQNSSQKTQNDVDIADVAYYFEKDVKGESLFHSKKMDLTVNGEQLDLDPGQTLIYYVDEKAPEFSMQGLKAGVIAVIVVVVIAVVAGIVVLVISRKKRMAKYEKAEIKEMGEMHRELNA
Procedure: was immobilized onto an ELISA plate via streptavidin, and HT-29-derived exosomes were added thereto and reacted. After washing, bound exosomes were detected using the anti-EpCAM antibody. The biotin-modified peptide PE194 of the L3A variant was immobilized in the same way as above and used as a control.

[2] = biological target: T2, EpCAM (Homo sapiens, UniProt P16422); assay: Dissociation constant of EpCAM-binding peptide and EpCAM by fluorescence depolarization method; conditions: immediately after chemical synthesis, no oxidation
T2 construct: with insertions myc and His tags at the C terminus of the extracellular domain; myc (C); made in house; host or cells: HEK-293T
T2 sequence (P16422 24-265 limits assumed): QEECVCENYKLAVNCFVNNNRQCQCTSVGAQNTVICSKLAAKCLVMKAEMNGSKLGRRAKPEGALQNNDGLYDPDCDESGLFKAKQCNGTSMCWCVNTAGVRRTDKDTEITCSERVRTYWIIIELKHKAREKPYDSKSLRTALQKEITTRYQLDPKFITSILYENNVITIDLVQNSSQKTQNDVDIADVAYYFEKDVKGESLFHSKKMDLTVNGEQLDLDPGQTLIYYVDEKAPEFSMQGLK
Procedure: The obtained EpCAM peptides were assayed for their strength of binding to EpCAM by the fluorescence depolarization method, which is a method for evaluating the interaction between molecules. Each fluorescently labeled EpCAM peptide and EpCAM are used to determine the strength of binding from the kinetics of depolarization by Brownian movement.
Each FITC-modified EpCAM peptide or control peptide was suspended at a concentration of approximately 100 μM in PBS. After centrifugation, the supernatant was collected and diluted 10-fold, and the absorbance was measured at 495 nm From the measurement value, the molar concentration of the peptide was determined using the formula of Beer-Lambert of the following expression 1: A=E×b×C [Expression 1]
EpCAM is diluted with PBS into several concentrations from 0 until reaching equilibrium (40 nM for the Ep133 peptide), and the FITC-modified peptide whose precise concentration has been measured by the aforementioned method is added to the dilutions thus prepared. The sample was left at a temperature for measurement for 30 minutes or longer and subjected to polarization measurement using a spectrofluorometer FP-6500 (JASCO Corp.) equipped with an automatic polarization measurement unit (JASCO Corp., APH-103). Kd was estimated by curve fitting according to the Hill equation.
The dissociation constants of the two types of peptides Ep133 (FIG. 2(A)) and Ep114 (FIG. 2(C)), which were obtained in the present invention and had the high ability to bind to EpCAM, were measured by the fluorescence depolarization method.
The dissociation constants of the EpCAM-binding peptide Ep301 (FIG. 2(D)) disclosed in Patent Literature 2 and Ep301 control (FIG. 2(E)), which was a control peptide derived from Ep301 by the substitution of cysteine at positions 5 and 10 by serine, and a sequence of EpCAM from residue 106 to 119 (FIG. 2(F)) having partial homology to EpCAM-binding peptides were measured similarly.

[3] = biological target: T3, 293T cells transfected with full-length EpCAM gene (Homo sapiens, UniProt P16422); assay: Staining of 293T cells forced to express EpCAM with FITC-modified peptide; type: cell-based; conditions: FITC-modified peptide with or without oxidation treatment
T3 construct: an expression plasmid in which the full-length EpCAM gene incorporated; expressed in transfected cells; host or cells: 293T
T3 sequence (P16422 24-314): T1 sequence (P16422 24-314)
From the text: 293T cells expressing no endogenous EpCAM were transfected with pkk196, an expression plasmid in which the full-length EpCAM gene incorporated, and forced to express EpCAM, followed by staining using FITC-modified Ep114.

[4] = S—S bond formation (autoxidation) of peptide by fluorescence depolarization method and HPLC; type: physicochemical
From the text: The S—S bond formation of Ep114 was studied in detail using the fluorescence depolarization method and HPLC.

[5] = system: non-EpCAM-expressing cells Hs578T; assay: Cell staining of Hs578T cells, confocal microscope; type: cell-based; conditions: FITC-labeled peptide 0.4 μM, 37° C., 1 hour
Procedure: (§1) The EpCAM-expressing cells HT-29 or the non-expressing cells Hs578T were cultured in a medium containing 10% fetal calf serum in a Petri dish for 48 hours and then incubated at 37° C. for 1 hour with the FITC-labeled Ep114 peptide or a L3A control labeled peptide at a final concentration of 0.4 μM Immediately thereafter, the cells were observed under a confocal microscope.

[6] = biological target: T4, MCF-7 cells (Homo sapiens, UniProt P16422); assay: Staining of EpCAM in MCF-7 cells; type: cell-based; conditions: data not shown
T4 construct: in MCF-7 cells known to express EpCAM; endogenous in cells; host or cells: MCF-7
T4 sequence (P16422 24-314): T1 sequence (P16422 24-314)
Procedure: (§2) The HT-29 cells as EpCAM-expressing cells were cultured by spheroid culture method as follows: 4×10^5 cells are suspended in 3 ml of D-MEM/F-12 medium (Dulbecco's Modified n Eagle Medium:Nutrient Mixture 12, 1:1 mixture) (Gibco/Life Technologies Inc.) supplemented with 20 ng/ml human EGF (Miltenyi Biotec K.K.), 20 ng/ml human EGF-2 (Miltenyi Biotec K.K.), B-27 (Gibco/Life Technologies Inc.), penicillin, and streptomycin and inoculated to EZ-Sphere®, a Petri dish of 3.5 cm in diameter coated with MPC polymer. After static culture for 72 hours, the cells were collected while the medium was suspended by pipetting. The cells were stained with the FITC-modified peptide and observed under a fluorescence microscope. The staining was carried out by adding 4 μM peptide into a McCoy's 5A medium and standing still at room temperature for 30 minutes.
In addition to HT-29 cells, the staining of EpCAM using Ep114 was also confirmed by a similar method in MCF-7 cells known to express EpCAM (data not shown).

[7] = biological target: T5, EpCAM on HT-29 (Homo sapiens, UniProt P16422); assay: Staining of spheroid-cultured HT-29 cells with FITC-modified peptide; type: cell-based; parameters: endogenous in cells; host or cells: HT-29; conditions: FITC-labeled peptide, 0.4 μM
T5 sequence (P16422 24-314): T1 sequence (P16422 24-314)
Procedure: as §2, with “The staining was carried out by adding 4 μM peptide into a McCoy's 5A medium and standing still at room temperature for 30 minutes.” left out

[8] = biological target: T6, EpCAM-expressing cells HT-29 (Homo sapiens, UniProt P16422); assay: Cell staining of HT-29 cells, confocal microscope; type: cell-based; conditions: HT-29, FITC-labeled peptide 0.4 μM, 37° C., 1 hour
T6 construct: EpCAM on HT-29 was stained at a concentration of 0.4 μM; endogenous in cells; host or cells: HT-29
T6 sequence (P16422 24-314): T1 sequence (P16422 24-314)
Procedure: as §1

[9] = biological target: T7, EpCAM (Homo sapiens, UniProt P16422); conditions: peptide separated from the phage; earlier work (Patent Literature 2); cited from earlier work
T7 sequence (P16422 24-314): T1 sequence (P16422 24-314)

[10] = biological target: T7, EpCAM; assay: Binding activity against EpCAM after oxidation treatment (S—S bond formation, HPLC fractionation)

| Structure (SMILES) | ELISA signal [1] | binding activity against EpCAM [2] | ability to stain EpCAM [3] | S—S bond formation ([4]; in PBS at 4° C. or frozen at −20° C., data not shown) | oxidation ([4]; in the presence of 10% FCS) | staining [5] | staining of EpCAM [6] | staining of EpCAM on HT-29 spheroids [7] | staining of cell membrane portions [8] | ability of the peptide to bind to EpCAM [9] | binding activity against EpCAM [10] |
| --- | --- | --- | --- | --- | --- | --- | --- | --- | --- | --- | --- |
| CC[C@H](C)[C@@H]1NC(=O)[C@H](CC(N)=O)NC(=O)[C@H](CCCNC(=N)N)NC(=O)[C@H](C(C)C)NC(=O)[C@@H](NC(=O)[C@H](CCC(N)=O)NC(=O)[C@H](CC(C)C)NC(=O)[C@H](Cc2c[nH]cn2)NC(=O)[C@@H](N)CCCCN)CSSC[C@@H](C(=O)N[C@@H](Cc2c[nH]c3ccccc23)C(=O)N[C@@H](CO)C(=O)O)NC1=O [Ep114, KHLQCVRNICWS] (H-KHLQCVRNICWS-OH; disulfide 5-10; N-terminus and C-terminus assumed) | enhancement in ELISA signal was observed | no binding activity against EpCAM | equivalent ability to stain EpCAM | oxidized after 10 days to form an S—S bond | rapidly oxidized | no staining was observed | confirmed | stained | staining of the cell membrane portions of the EpCAM-expressing cells HT-29 was observed | – | – |
| CC[C@H](C)[C@@H]1NC(=O)[C@@H](NC(=O)[C@H](CCC(N)=O)NC(=O)[C@H](CC(C)C)NC(=O)[C@H](CO)NC(=O)[C@@H](N)CCCCN)CSSC[C@@H](C(=O)N[C@@H](Cc2c[nH]c3ccccc23)C(=O)N2CCC[C@H]2C(=O)O)NC(=O)[C@H](CC(C)C)NC(=O)[C@H](CC(N)=O)NC(=O)[C@H](CC(N)=O)NC1=O [Ep301, KSLQCINNLCWP, reference compound] (H-KSLQCINNLCWP-OH; disulfide 5-10; N-terminus and C-terminus assumed) | – | – | – | – | – | – | – | – | – | weak | gain binding activity against EpCAM |
